Experiments:
[1] = system: NT5E (CD73) gene expression in H23 cells; assay: Quantitative real-time RT-PCR of NT5E (CD73); format: cell-based, human; settings: relative to untreated, 18sRNA reference
Description: (§1) The effect of the oncogene knockdown on gene expression of DUSP6 and NT5E genes were observed by quantitative real-time RT-PCR. Initially H23 cells (1×10^6 cells/well) were treated with 4 samples including untreated, GelNP-Ab, GelNP-Ab-siRNA and siRNA (transfection agent). RNA was extracted through standard RNA extraction protocol. cDNA was synthesized from RNA extracted from the treated cells. The quality and the concentration of the extracted RNA was determined using bioanalyzer. 18sRNA was used as an reference gene (housekeeping gene) for data normalization. Primers and probes for all genes were purchased from Integrated DNA Technologies (IDT). PCR was performed in a reaction volume of 20 μl containing 2 μl cDNA using the Gene Amp 7700 Sequence Detection System. The comparative Ct protocol was followed to determine the relative expression levels.

[2] = system: DUSP6 gene expression in H23 cells; assay: Quantitative real-time RT-PCR of DUSP6; format: cell-based, human; settings: relative to untreated, 18sRNA reference
Description: In this inquiry, quantitative real time PCR was performed to examine dual specificity phosphatase 6 (DUSP6) and CD73 gene expression levels.
as §1

[3] = system: SHP2, pSHP2 (Y542), pSHP2 (Y580) in KRAS mutated H23 cells; assay: Western blot and densitometry for SHP2 and phospho-SHP2
Description: The Western blot analysis was performed as follows. Cells were seeded at a density of 1×10^6 cells/ml and incubated for overnight at 37° C. in 5% CO2 atmosphere. Nanoparticle and relevant control samples were incubated in serum free media for the period of 72 hrs. […] Whole-cell lysates were prepared using Triton X 100 lysis buffer with MS-SAFE protease and phosphatase cocktail inhibitor (Sigma-Aldrich) and the protein concentration was equalized by Bicinchoninic acid assay (Sigma-Aldrich).
Membranes were incubated with primary antibody overnight, were washed and incubated with secondary antibody. Primary antibodies used for western blotting are rabbit polyclonal anti-β-actin, rabbit monoclonal anti-AKT, rabbit monoclonal anti-phospho-AKT, rabbit polyclonal anti-MEK1/2, rabbit polyclonal anti-phospho-MEK1/2, rabbit monoclonal anti-EGFR, rabbit monoclonal anti-phospho-EGFR, rabbit monoclonal anti-SHP2, rabbit polyclonal anti-phospho-SHP2 (Tyr542), rabbit polyclonal anti-phospho-SHP2 (Tyr580), rabbit monoclonal anti-phospho-GAB1 (Tyr627), rabbit polyclonal anti-phospho-GAB1 (Tyr307), all from Cell Signaling and mouse monoclonal anti-KRAS from Santa Cruz Biotech. […] Protein expression levels were quantified by densitometry analysis.

[4] = system: H23 human adenocarcinoma non-small cell lung cancer cells
Description: Considering downregulation of downstream-phosphorylated proteins, the cell viability of H23 cells (MTT assay) after knocking down the RAS pathway was then investigated.
(Thermo Scientific, USA). For determining in vitro cytotoxicity, the MTT assay was performed by incubating various samples including the nanoparticle of interest on H23 and A549 cells.
Each sample was analyzed in triplicate. After 24 hours of incubation, 10 μl of MTT solution (ATCC, USA) was added and the plate was incubated at 37° C. for 4 hours. Crystals formed were dissolved in 100 μl solubilizing buffer and the plates were kept at 25° C. for 2 hours. The intensity of the color developed after addition of the solubilizing buffer was measured using Biotek Cytation 3 spectrophotometer at 570 nm.
Viability of the cells transfected with various samples was then calculated by considering the untreated cells as 100% viable.

transfected siRNA: KRAS G12C siRNA (SEQ ID NO. 1 annealed with SEQ ID NO. 2) delivered with transfecting agent (sense GUUGGAGCUUGUGGCGUAGUUUU; antisense AACUACGCCACAAGCUCCAACUU; disulfide moiety, further chemistry not given here)
CD73 (NT5E) RF value (real time qPCR) [1]: 1.07
RF value of DUSP6 (real time qPCR) [2]: 0.1
SHP2, pSHP2 (Y542) and pSHP2 (Y580) level ([3]; in the presence of gefitinib): significant downregulation
SHP2, pSHP2 (Y542) and pSHP2 (Y580) level ([3]; without gefitinib): did not show any effect
cytotoxicity / change in viability (in words) [4]: no toxicity
cell survival post RAS oncogene knockdown ([4]; H23 cells, without gefitinib): 100%
